Measured values as given in ChEMBL document CHEMBL1821574, “Structure-activity relationships of 4-position diamine quinoline methanols as intermittent preventative treatment (IPT) against Plasmodium falciparum” (J Med Chem, 2011).
Values after ≈ are worked out from the molar mass of the structure shown.

What was measured:
[1] = Apparent permeability from apical to basolateral side of dog MDCK cells at 5 uM after 2 hrs by LC/MS/MS analysis; format: ADME, cell-based, Canis lupus familiaris
Plasmodium falciparum [2] = assay: Antimalarial activity against chloroquine-sensitive and mefloquine-resistant Plasmodium falciparum D6 by SYBR Green I-based fluorescence assay; format: functional
Plasmodium falciparum [3] = assay: Antimalarial activity against chloroquine, mefloquine and pyrimethamine-resistant Plasmodium falciparum TM91C235 by SYBR Green I-based fluorescence assay; format: functional
Plasmodium falciparum [4] = assay: Antimalarial activity against chloroquine-sensitive and mefloquine-resistant Plasmodium falciparum D6 assessed as inhibition of [3H]hypoxanthine incorporation by liquid scintillation spectrometry; format: functional
Plasmodium falciparum [5] = assay: Antimalarial activity against chloroquine, mefloquine and pyrimethamine-resistant Plasmodium falciparum TM90C2A assessed as inhibition of [3H]hypoxanthine incorporation by liquid scintillation spectrometry; format: functional
Plasmodium falciparum [6] = assay: Antimalarial activity against chloroquine-resistant and mefloquine-sensitive Plasmodium falciparum W2 assessed as inhibition of [3H]hypoxanthine incorporation by liquid scintillation spectrometry; format: functional
Plasmodium falciparum [7] = assay: Antimalarial activity against chloroquine, mefloquine and pyrimethamine-resistant Plasmodium falciparum TM91C235 assessed as inhibition of [3H]hypoxanthine incorporation by liquid scintillation spectrometry; format: functional

SMILES | Papp A→B at 2 h, 5 µM [1] | IC90 (Plasmodium falciparum [2]) | IC90 (Plasmodium falciparum [3]) | IC90 (Plasmodium falciparum [4]) | IC90 (Plasmodium falciparum [5]) | IC90 (Plasmodium falciparum [6]) | IC90 (Plasmodium falciparum [7])
CN(CCN)CC(O)c1cc(C(F)(F)F)nc2c(C(F)(F)F)cccc12 (stereo unspecified) | 4.9 ×10⁻⁶ cm/s | 0.344 µg/mL (≈ 0.902 µM) | 0.695 µg/mL (≈ 1.82 µM) | – | – | – | –
CN(C)CC(C)(C)NCC(O)c1cc(C(F)(F)F)nc2c(C(F)(F)F)cccc12 (stereo unspecified) | – | – | – | 0.098 µg/mL (≈ 0.231 µM) | 0.165 µg/mL (≈ 0.39 µM) | 0.03 µg/mL (≈ 0.0709 µM) | 0.142 µg/mL (≈ 0.335 µM)
OC(CNCCNC1CCC1)c1cc(C(F)(F)F)nc2c(C(F)(F)F)cccc12 (stereo unspecified) | 8.54 ×10⁻⁶ cm/s | 0.081 µg/mL (≈ 0.192 µM) | 0.138 µg/mL (≈ 0.327 µM) | – | – | – | –
OC(CNCC1CCNC1)c1cc(C(F)(F)F)nc2c(C(F)(F)F)cccc12 (stereo unspecified) | – | – | – | 3.1 µg/mL (≈ 7.61 µM) | 4.37 µg/mL (≈ 10.7 µM) | 2.04 µg/mL (≈ 5.01 µM) | 4.27 µg/mL (≈ 10.5 µM)
O=C1NCCC1N(CCNCC(O)c1cc(C(F)(F)F)nc2c(C(F)(F)F)cccc12)C1CCNC1=O (stereo unspecified) | – | – | – | > 0.5 µg/mL | > 0.5 µg/mL | 0.487 µg/mL (≈ 0.913 µM) | > 0.5 µg/mL
CC(CCN1CCOCC1)NCC(O)c1cc(C(F)(F)F)nc2c(C(F)(F)F)cccc12 (stereo unspecified) | – | – | – | 0.036 µg/mL (≈ 0.0773 µM) | 0.095 µg/mL (≈ 0.204 µM) | 0.011 µg/mL (≈ 0.0236 µM) | 0.055 µg/mL (≈ 0.118 µM)
CN1CCCC(C(NCC(O)c2cc(C(F)(F)F)nc3c(C(F)(F)F)cccc23)C2CCCN(C)C2)C1 (stereo unspecified) | – | – | – | 0.746 µg/mL (≈ 1.4 µM) | 0.983 µg/mL (≈ 1.85 µM) | 0.28 µg/mL (≈ 0.526 µM) | 0.903 µg/mL (≈ 1.7 µM)
CC(C)(CN1CC2CCC1C2)NCC(O)c1cc(C(F)(F)F)nc2c(C(F)(F)F)cccc12 (stereo unspecified) | 25.1 ×10⁻⁶ cm/s | 0.093 µg/mL (≈ 0.196 µM) | 0.16 µg/mL (≈ 0.337 µM) | – | – | – | –
CC1C(NCC(O)c2cc(C(F)(F)F)nc3c(C(F)(F)F)cccc23)CC2CC1C2(C)C (stereo unspecified) | – | – | – | 0.014 µg/mL (≈ 0.0304 µM) | 0.016 µg/mL (≈ 0.0347 µM) | – | 0.019 µg/mL (≈ 0.0413 µM)
OC(CNCCN1CCCC1)c1cc(C(F)(F)F)nc2c(C(F)(F)F)cccc12 (stereo unspecified) | – | – | – | 0.311 µg/mL (≈ 0.738 µM) | 0.835 µg/mL (≈ 1.98 µM) | 0.109 µg/mL (≈ 0.259 µM) | 0.556 µg/mL (≈ 1.32 µM)
OC(CNCCN(C1CCCCC1)C1CCCCC1)c1cc(C(F)(F)F)nc2c(C(F)(F)F)cccc12 (stereo unspecified) | 24.7 ×10⁻⁶ cm/s | 0.0093 µg/mL (≈ 0.0175 µM) | 0.022 µg/mL (≈ 0.0414 µM) | – | – | – | –
CC(CN1CC2CCC1C2)NCC(O)c1cc(C(F)(F)F)nc2c(C(F)(F)F)cccc12 (stereo unspecified) | 18.8 ×10⁻⁶ cm/s | 0.029 µg/mL (≈ 0.0628 µM) | 0.051 µg/mL (≈ 0.111 µM) | – | – | – | –
OC(CNCCNc1ccccc1)c1cc(C(F)(F)F)nc2c(C(F)(F)F)cccc12 (stereo unspecified) | 13 ×10⁻⁶ cm/s | 0.028 µg/mL (≈ 0.0631 µM) | 0.07 µg/mL (≈ 0.158 µM) | – | – | – | –
NCCN(Cc1ccccc1)CC(O)c1cc(C(F)(F)F)nc2c(C(F)(F)F)cccc12 (stereo unspecified) | 9.06 ×10⁻⁶ cm/s | 0.329 µg/mL (≈ 0.719 µM) | 0.289 µg/mL (≈ 0.632 µM) | – | – | – | –
OC(CNCCNC1CC1)c1cc(C(F)(F)F)nc2c(C(F)(F)F)cccc12 (stereo unspecified) | 2.8 ×10⁻⁶ cm/s | 0.041 µg/mL (≈ 0.101 µM) | 0.128 µg/mL (≈ 0.314 µM) | – | – | – | –
CC(CNC1CCCCC1)NCC(O)c1cc(C(F)(F)F)nc2c(C(F)(F)F)cccc12 (stereo unspecified) | 9.6 ×10⁻⁶ cm/s | 0.026 µg/mL (≈ 0.0561 µM) | 0.082 µg/mL (≈ 0.177 µM) | – | – | – | –
OC(CNC[C@]12CCC[C@H]1CNC2)c1cc(C(F)(F)F)nc2c(C(F)(F)F)cccc12 (stereo partly specified) | – | – | – | 0.159 µg/mL (≈ 0.355 µM) | 0.429 µg/mL (≈ 0.959 µM) | 0.852 µg/mL (≈ 1.9 µM) | 0.419 µg/mL (≈ 0.936 µM)
OC(CNCCNC1CCCCC1)c1cc(C(F)(F)F)nc2c(C(F)(F)F)cccc12 (stereo unspecified) | 2.7 ×10⁻⁶ cm/s | 0.122 µg/mL (≈ 0.271 µM) | 0.142 µg/mL (≈ 0.316 µM) | – | – | – | –
CC(C)N(C)CCNCC(O)c1cc(C(F)(F)F)nc2c(C(F)(F)F)cccc12 (stereo unspecified) | 9.03 ×10⁻⁶ cm/s | 0.044 µg/mL (≈ 0.104 µM) | 0.079 µg/mL (≈ 0.187 µM) | – | – | – | –
OC(NC[C@]12CC[C@@H](C1)NC2)c1cc(C(F)(F)F)nc2c(C(F)(F)F)cccc12 (stereo partly specified) | – | – | – | 0.075 µg/mL (≈ 0.179 µM) | – | 0.275 µg/mL (≈ 0.656 µM) | 0.26 µg/mL (≈ 0.62 µM)
OC(NC[C@H]1CCCN1)c1cc(C(F)(F)F)nc2c(C(F)(F)F)cccc12 (stereo partly specified) | – | – | – | 0.04 µg/mL (≈ 0.102 µM) | 0.054 µg/mL (≈ 0.137 µM) | 0.008 µg/mL (≈ 0.0203 µM) | 0.074 µg/mL (≈ 0.188 µM)
